Data taken from US7879861B2, “Combi-molecules having EGFR and DNA targeting properties” (priority 2005, dated 2011).
“Also recorded” adds a separate entry of the source.

Tests used:
[1] = tested on: human breast carcinoma MDA-MB-468; test: In vivo efficacy, MDA-MB-468 implanted s.c.; parameters: species or system SCID mice
Procedure: In vivo studies: SCID mice were maintained as per McGill animal safety protocols. In a preliminary model, SCID mice housed in filtered cages were implanted subcutaneously (s.c.) with the human breast carcinoma MDA-MB-468 and treatment began when the tumors were palpable (8 mice/group). […] The tumor burdens were measured with a caliper and mice were weighed twice weekly. The study was later repeated with the MDA-MB-468 cells implanted in the mammary fat pad, a model that better mimics human breast carcinoma.

DNA of MDA-MB-468 cells = test: Alkaline comet assay for DNA damage; assay type: cell-based, human; conditions: 2 h drug exposure
Procedure: Alkaline Comet Assay for quantization of DNA damage: The alkaline comet assay was performed as described in previously published procedures (19, 20). The cells were exposed to drugs for 2 h, harvested with trypsin-EDTA and re-suspended in PBS. Cell suspensions were diluted to approximately 10^6 cells, and mixed with agarose (1%) in PBS at 37° C. in a 1:10 dilution. The gels were cast on Gelbond strips (Mandel Scientific, Canada) using gel casting chambers and then immediately placed into a lysis buffer [2.5 M NaCl, 0.1 M tetra-sodium EDTA, 10 mM Tris-base and 1% (v/v) Triton X-100, pH 10.0]. After being kept on ice for 30 min, the gels were gently rinsed with distilled water and immersed in a second lysis buffer (2.5 M NaCl, 0.1 M tetrasodium EDTA, 10 mM Tris-base) containing 1 mg/ml proteinase K for 60 min at 37° C. Thereafter, the gels were rinsed with distilled water, incubated in alkaline electrophoresis buffer for 30 min at 37° C., and electrophoresed at 19 V for 20 min. […] Comets were visualized at 330× magnification and DNA damage was quantitated using the Tail Moment parameter (i.e., the distance between the barycenter of the head and the tail of the comet multiplied by the percentage of DNA within the tail of the comet). A minimum of 50 cell/comets were analyzed for each sample, using ALKOMET version 3.1 image analysis software.

ClCCNc1ccc2ncnc(Nc3cccc(Br)c3)c2c1 [ZR2002]
in vivo antitumor activity ([1]; 50 mg/kg i.p. every 3-4 days, one month, s.c. tumors, p<0.001 vs vehicle): modest; also recorded: moderate antiproliferative activity
tolerated dose ([1]; SCID mice, i.p.): 50 mg/kg
DNA damage (tail moment), in words (DNA of MDA-MB-468 cells): damages DNA in a dose dependent manner
concentration inducing significant DNA damage (DNA of MDA-MB-468 cells): 10 µM
